Experimental data from publication PMC6325233, “A Novel Actin Binding Drug with In Vivo Efficacy” (Antimicrobial Agents and Chemotherapy, 2018).

What was measured:
[1] = target: rabbit skeletal muscle filamentous actin (F-actin) (rabbit) (UniProt P68135); test: co-sedimentation; F-actin 200 nM; occidiofungin 25 to 25,600 nM or phalloidin 25 to 800 nM; 5 mM Tris-HCl pH 8.0, 0.2 mM ATP, 2 mM MgCl2; 30 min at room temperature; 100,000 rpm, 4°C, 20 min; free and bound ligand quantified by mass spectrometry; Langmuir isotherm; macroscopic Kd
[2] = at doses required for efficacious effect; cited from earlier work
Procedure: Natural products with in vitro antifungal properties that target the actin cytoskeleton were previously reported ([51]). […] Occidiofungin, on the other hand, is well tolerated at 5 mg/kg or 20 mg/kg when administered intravenously or subcutaneously, respectively ([22], [25]). This dose is much higher than the MIC of occidiofungin against several fungal pathogens. ...

[3] = tested on: Candida albicans strain ATCC 66027; conditions: cited from earlier work
Procedure: Therefore, additional studies related to the perturbation of actin-based functions were performed to confirm that actin was the biological target of occidiofungin. As a dimorphic fungus, C. albicans can grow as a yeast or hypha, and the ability to switch between these forms is linked to the pathogenicity of the organism ([29]). Several reports have established that actin cables play an important role in the switch between yeast and hyphal forms ([30], [31]). The impact of ...

## Phalloidin (peptide)
[1]
  Kd: 8 nM
  stoichiometry N (phalloidin per actin monomer): 0.6

## jasplakinolide
[2]
  toxicity in animals: limited by their toxicity in animals

## C/C1=C/C(=O)O[C@@H]2C[C@@H](CC[C@H](C)/C=C\C=C\CC1)O[C@@](O)([C@@H]1CSC(=O)N1)C2 [latrunculin A]
[3]
  effect on hyphal formation: prevent hyphal formation

## C=C1[C@@H](C)[C@H]2[C@H](Cc3ccccc3)NC(=O)[C@]23OC(=O)/C=C/C(=O)CCC[C@@H](C)C/C=C/[C@H]3[C@@H]1O [cytochalasin A]
[3]
  effect on hyphal formation: prevent hyphal formation
